The nature of data set [1]: Heparin affinity chromatography (HiTrap Heparin HP sepharose column, NaCl gradient). As to conditions: 20 mM phosphate pH 7.4, NaCl gradient. The format is binding, porcine.
Experimental: (A) Chromatograms of PACAP38 elution with increasing NaCl concentration on a sepharose heparin column connected to a FPLC Aktapure system.
The relative binding affinity of the peptides for sulfated GAGs was evaluated using a 1 mL HiTrap Heparin HP column packed with sepharose and immobilized heparin from porcine intestinal mucosa (GE Healthcare, Baie-d'Urfé, QC, Canada). The column was connected to a FPLC Aktapure system (GE Healthcare) and equilibrated with phosphate buffer (20 mM, pH 7.4) prior to injection. Five hundred microliters of 0.5 mg/mL peptide solutions were injected at a flow rate of 0.5 mL/min. After injection, the elution consisted of an isocratic step of 5 mL phosphate buffer (20 mM, pH 7.4) followed by a gradient from 0 to 2 M NaCl in phosphate buffer (pH 7.4). Peptide elution was monitored using absorbance at 230 nm.
Data set [2] relates to CHO K1 cells. As to the kind of experiment: Cellular uptake of fluorescently labelled peptides by flow cytometry, CHO K1 cells. The format is cell-based, Chinese hamster. As to conditions: 1 µM fluorescently-labelled (FITC-Ahx N-terminal) peptide, 1 h at 37 °C, 1% FBS Ham's F12, heparin wash and trypsin, at least 3 experiments. On the technique in general: In flow cytometry, cells or beads pass a laser one at a time.
Experimental: Chinese hamster ovary cells K1 (CHO K1; obtained from ATCC, Manassas, VA, USA) and xylosyltransferase deficient cells [18] (CHO pgs-A-745; obtained from ATCC) were maintained in Ham’s F12 medium supplemented with 10% foetal bovine serum (FBS), 2 mM L-glutamine and antibiotic (10,000 UI/mL penicillin, and 10,000 UI/mL streptomycin). Cells were maintained as a monolayer at 37 °C in a humidified atmosphere of 5% CO2 and 95% air and passaged by trypsinization when the cells reached 70%–80% confluence.

The nature of data set [3]: Heparin clustering measured by turbidity at 400 nm, heparin-into-peptide titration. The format is physicochemical. Conditions: 1.25 µL aliquots of 100 µM heparin into 1 mL 50 µM peptide, 20 mM phosphate, 100 mM NaCl, pH 7.4.
Experimental: Each peak corresponds to the injection of 1.25 μL of a 100 μM heparin solution (20 mM phosphate, 100 mM NaCl, pH 7.4) into a 1 mL 50 μM peptide solution (20 mM phosphate, 100 mM NaCl, pH 7.4).
The formation of macromolecular GAG-peptide clusters was monitored by measuring the light scattering at 400 nm, as previously described [27, 28], using a 100 Bio Cary UV-visible spectrophotometer (Varian, Malton, ON, Canada). Briefly, for the heparin-into-peptide titration, a 1 cm length quartz cuvette was filled with 1 mL of a 50 μM peptide solution (20 mM phosphate buffer, 100 mM·NaCl, pH 7.4) and 1.25 μL aliquots of a 100 μM heparin solution (20 mM phosphate buffer, 100 mM·NaCl, pH 7.4) were successively added. The solution was gently mixed by vortex and the turbidity at 400 nm was immediately measured. For the peptide-into-heparin titration, a 1 cm length quartz cuvette was filled with 1 mL of a 10 μM heparin solution (20 mM phosphate buffer, 100 mM·NaCl, pH 7.4) and 12.5 μL aliquots of a 200 μM peptide solution (20 mM phosphate buffer, 100 mM·NaCl, pH 7.4) were successively added. The solution was gently mixed by vortex and the turbidity at 400 nm was immediately measured. Data was expressed as solution turbidity at 400 nm as function of peptide/heparin or heparin/peptide molar ratio.
Data set [4] deals with CHO pgs-A-745 cells. Description: Cellular uptake of fluorescently labelled peptides by flow cytometry, GAGs-deficient CHO pgs-A-745 cells. As to conditions: 1 µM fluorescently labelled peptide, 1 h at 37 °C. The format is cell-based, Chinese hamster. The method, then:
Figure 1 Cellular uptake of cationic peptide hormones and TAT peptide. […] Data represent the relative mean fluorescence intensity (± S.E.M.) of gated cells from at least 3 individual experiments and results are expressed as a percentage of the median fluorescence for 1 μM PACAP38 in CHO K1 cells. Cells were incubated for 1 h at 37 °C in 5% CO2 with fluorescently labelled peptides, washed twice in HBSS, treated with 100 μg/mL heparin for 5 min, detached by trypsin treatment, washed by centrifugation and resuspended in ice-cold sorting buffer before flow cytometry analysis.
Chinese hamster ovary cells K1 (CHO K1; obtained from ATCC, Manassas, VA, USA) and xylosyltransferase deficient cells (CHO pgs-A-745; obtained from ATCC) were maintained in Ham’s F12 medium supplemented with 10% foetal bovine serum (FBS), 2 mM L-glutamine and antibiotic (10,000 UI/mL penicillin, and 10,000 UI/mL streptomycin). […]
For cellular uptake measurement, CHO K1 and CHO pgs-A-745 were seeded in 12-well plates at a density of 30,000 cells/well for 48 h to approximately 75% confluence. […] To confirm that the fluorescence measured by flow cytometry was not associated to non-specific binding of the FITC-peptides at the cell surface, we performed the analysis after treatment with the fluorescent quencher trypan blue. […]

For data set [5] the following is noted: previously shown; cited from earlier work. From the text:
This could be related to the fact that arginine has a higher affinity for sulfated GAGs than lysine.

For data set [6] the following is noted: previously shown; cited from earlier work. From the text: We recently reported that upon binding to sulfated GAGs, PACAP38 undergoes a random coil-to-α-helix conformational conversion. […] Thus, we evaluated if the lower efficacy of cellular uptake of representative peptides of the secretin/glucagon/GHRH superfamily and of calcitonin could not be ascribed to the incapacity of ...
The source holds these as a separate data set.

As to “CGNLSTCMLGTYTQDFNKFHTFPQTAIGVGAP [Calcitonin]”, the “Relative binding to heparin column (in words)” value in data set [1] was “bind weakly to the heparin column”. For the same sequence, in data set [2], the “Cellular uptake, fold lower compared to PACAP38” value is reported as 5- to 10 fold. Further, in data set [3], the “Turbidity at 400 nm on titration of heparin into peptide (in words)” value was “absence of turbidity”. Moreover, the “Extent of internalization in CHO pgs-A-745 versus CHO K1 cells (in words)” value in data set [4] is “rather similar”.

With “GRKKRRQRRRPPQ [TAT(48–60), cationic peptide derived from the HIV-1 protein TAT, the control CPP used in this study]”, in data set [5], the “NaCl concentration at which TAT is eluted from heparin column” value is on record as “around 1.8 M”. For the same sequence, the “Secondary conformation of TAT upon binding to heparin” value in data set [6] is “adopts an α-helical conformation”.

The values above are taken from paper PMC4661883, “Cell-Penetrating Ability of Peptide Hormones: Key Role of Glycosaminoglycans Clustering” (International Journal of Molecular Sciences, 2015).
